Laboratory results taken from ChEMBL document CHEMBL1142141, “Molecular mechanism of flucytosine resistance in Candida lusitaniae: contribution of the FCY2, FCY1, and FUR1 genes to 5-fluorouracil and fluconazole cross-resistance” (2007).
In brackets after ≈: the same amount, converted by molar mass.

System: Clavispora lusitaniae
Assay: Antifungal activity against Candida lusitaniae 6936 by microdilution assay
Type: functional

O=c1[nH]cc(F)c(=O)[nH]1 [FLUOROURACIL] and Nc1nc(=O)[nH]cc1F [FLUCYTOSINE] cannot be ordered by MIC: no more than 0.5 µg/mL for the first, no more than 0.5 µg/mL for the second.

Compound OC(Cn1cncn1)(Cn1cncn1)c1ccc(F)cc1F [FLUCONAZOLE] has an MIC of 2 µg/mL (≈ 6.53 µM).

System: Clavispora lusitaniae
Assay: Antifungal activity against Candida lusitaniae 6936 URA3[D95V] derived null mutant fcy2delta::URA3 by microdilution assay
Type: functional

Going from O=c1[nH]cc(F)c(=O)[nH]1 [FLUOROURACIL] to Nc1nc(=O)[nH]cc1F [FLUCYTOSINE], the MIC rises from no more than 0.5 µg/mL to 64 µg/mL (≈ 496 µM).

OC(Cn1cncn1)(Cn1cncn1)c1ccc(F)cc1F [FLUCONAZOLE] gave an MIC of 2 µg/mL (≈ 6.53 µM).

System: Clavispora lusitaniae
Assay: Antifungal activity against Candida lusitaniae 6936 URA3[D95V] derived null mutant fcy1delta::URA3 by microdilution assay
Type: functional

Going from O=c1[nH]cc(F)c(=O)[nH]1 [FLUOROURACIL] to Nc1nc(=O)[nH]cc1F [FLUCYTOSINE], the MIC rises from no more than 0.5 µg/mL to 128 µg/mL (≈ 992 µM).

OC(Cn1cncn1)(Cn1cncn1)c1ccc(F)cc1F [FLUCONAZOLE] gave an MIC of 2 µg/mL (≈ 6.53 µM).

System: Clavispora lusitaniae
Assay: Antifungal activity against Candida lusitaniae 6936 URA3[D95V] derived null mutant fur1delta::URA3 by microdilution assay
Type: functional

O=c1[nH]cc(F)c(=O)[nH]1 [FLUOROURACIL] and Nc1nc(=O)[nH]cc1F [FLUCYTOSINE] cannot be ordered by MIC: no less than 512 µg/mL for the first, no less than 512 µg/mL for the second.

OC(Cn1cncn1)(Cn1cncn1)c1ccc(F)cc1F [FLUCONAZOLE] was tested, and the MIC was 2 µg/mL (≈ 6.53 µM).

System: Clavispora lusitaniae
Assay: Antifungal activity against Candida lusitaniae 6936 revertant fcy2delta::[FCY2-URA3] by microdilution assay
Type: functional

O=c1[nH]cc(F)c(=O)[nH]1 [FLUOROURACIL] and Nc1nc(=O)[nH]cc1F [FLUCYTOSINE] cannot be ordered by MIC: no more than 0.5 µg/mL for the first, no more than 0.5 µg/mL for the second.

OC(Cn1cncn1)(Cn1cncn1)c1ccc(F)cc1F [FLUCONAZOLE] gave an MIC of 2 µg/mL (≈ 6.53 µM).

System: Clavispora lusitaniae
Assay: Antifungal activity against Candida lusitaniae 6936 revertant fcy1delta::[FCY1-URA3] by microdilution assay
Type: functional

O=c1[nH]cc(F)c(=O)[nH]1 [FLUOROURACIL] and Nc1nc(=O)[nH]cc1F [FLUCYTOSINE] cannot be ordered by MIC: no more than 0.5 µg/mL for the first, no more than 0.5 µg/mL for the second.

OC(Cn1cncn1)(Cn1cncn1)c1ccc(F)cc1F [FLUCONAZOLE] showed an MIC of 2 µg/mL (≈ 6.53 µM).
